In US10710988B2, “Piperazine derivative” (Astellas Pharma Inc., priority 2016, dated 2020) one finds EC50 data, which are given here for five compounds.

What all share (assay type): cell-based
The target in one assay is T1, human MC4 receptor (Homo sapiens, UniProt P32245).
T1 construct: expressed in transfected cells; host or cells: FreeStyle 293-F cells (transient, electroporation)
The assay can be described thus: Human MC4 receptor activation, cAMP production in cells transiently expressing the receptor. To be noted: FreeStyle 293-F cells expressing human MC4 receptor, α-MSH maximum = 100%. From the text: (§1) (1) Construction of Human MC Receptor-Expressing Vector
(§2) A human MC4 receptor gene (GenBank Accession No.: NM_005912.2), a human MC1 receptor gene (GenBank Accession No.: NM_002386.3), or a human MC3 receptor gene (GenBank Accession No.: NM_019888.3) was introduced into an expression vector pcDNA™ 3.1N/V5-His TOPO (registered trademark) (Thermo Fisher Scientific Inc).
(§3) (2) Construction of Cells Transiently Expressing Human MC Receptor
(§4) An expression vector for a human MC4, MC1, or MC3 receptor was introduced into FreeStyle™ 293-F cells (Thermo Fisher Scientific Inc., product number: R790-07). For the introduction, electroporation was employed. That is, 1×10^7 FreeStyle™ 293-F cells were suspended in 80 μL of an Electroporation Buffer (Thermo Fisher Scientific Inc., product number: B201-100), and 20 μg of the expression vector was added thereto. The resultant was put into a cuvette (OC-100 Processing Assembly, MaxCyte, Inc.) and electroporated with MaxCyte STX (registered trademark) (MaxCyte, Inc.). The cells were cultured for a day, suspended in a Cell Banker (registered trademark) 1 (TAKARA BIO INC. or JUJI FIELD Inc., product number: BLC-1), and stored frozen until they were used.
(§5) (3) Measurement of Amount of cAMP Production
(§6) Measurement was carried out by using a LANCE (registered trademark) Ultra cAMP Kit (PerkinElmer, Inc.) in accordance with the attached instructions. That is, after dissolution in DMSO, the test compound (a final concentration of 1 pM to 30 μM) diluted with an assay buffer (Hank's balanced salt solution, 5 mM 4-(2-hydroxyethyl)-1-piperazineethanesulfonic acid (HEPES), 0.5 mM 3-isobutyl-1-methylxanthine (IBMX), 0.1% bovine serum albumin, pH 7.4), or α-MSH (Bachem Inc., a final concentration of 1 pM to 30 μM) was added to OptiPlate-384 (PerkinElmer, Inc.). Furthermore, the suspension of the cells transiently expressing the human MC4, MC1, or MC3 receptor prepared using the assay buffer was added thereto at 1,000 cells/well, and then left to stand at room temperature for about 1 hour. Thereafter, an Eu-cAMP tracer solution and an ULight™-anti-cAMP solution were added thereto, and then the resulting solution was left to stand at room temperature for about 1 hour. The amount of cAMP was calculated using EnVision (registered trademark) (PerkinElmer Inc.).
(§7) For the agonistic activity, the efficacy (EC50 (μM)) was calculated by a non-linear regression method with a Sigmoid-Emax model, by defining the maximum reaction using α-MSH as 100% and the reaction using the vehicle alone as 0%, respectively.
(In general: cAMP levels reflect the balance of adenylyl cyclase and phosphodiesterase activity.)

For the next assay, the target named is T2, human MC3 receptor (Homo sapiens, UniProt P41968).
T2 construct: expressed in transfected cells; host or cells: FreeStyle 293-F cells (transient, electroporation)
T2 sequence (P41968 whole entry): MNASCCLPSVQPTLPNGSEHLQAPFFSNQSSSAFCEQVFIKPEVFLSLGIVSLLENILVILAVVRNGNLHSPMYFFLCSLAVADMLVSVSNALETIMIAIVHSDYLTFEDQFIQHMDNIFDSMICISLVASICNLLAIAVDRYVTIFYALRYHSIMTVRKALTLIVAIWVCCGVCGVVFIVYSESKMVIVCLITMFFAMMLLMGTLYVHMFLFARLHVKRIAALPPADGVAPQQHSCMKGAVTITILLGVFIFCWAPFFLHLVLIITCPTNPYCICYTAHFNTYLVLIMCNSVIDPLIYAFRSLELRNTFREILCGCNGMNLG
The assay is described as follows: Human MC3 receptor activation, cAMP production in cells transiently expressing the receptor. The settings on record: FreeStyle 293-F cells expressing human MC3 receptor, α-MSH maximum = 100%.
From the text: as §1, §2, §3, §4, §5, §6, §7

Another assay addresses T3, rat MC4 receptor (Rattus norvegicus, UniProt P70596).
T3 construct: expressed in transfected cells; host or cells: FreeStyle 293-F cells (transient, electroporation)
The assay can be described thus: Rat MC4 receptor activation, cAMP production in cells transiently expressing the receptor. The settings on record: FreeStyle 293-F cells expressing rat MC4 receptor, α-MSH maximum = 100%.
From the text: (1) Construction of Rat MC4 Receptor-Expressing Vector
A rat MC4 receptor gene (GenBank Accession No.: NM_013099.3) was introduced into an expression vector pcDNA™ 3.1N/V5-His TOPO (registered trademark) (Thermo Fisher Scientific Inc.).
(2) Construction of Cells Transiently Expressing Rat MC4 Receptor
as §4, with “rat MC4” for “human MC4, MC1, or MC3”, “Inc.).” for “Inc., product number: R790-07).”, “electroporation buffer” for “Electroporation Buffer”, “Inc.),” for “Inc., product number: B201-100),”, “Inc.),” for “Inc., product number: BLC-1),”
as §5
Measurement was carried out in accordance with the attached instructions, using a LANCE (registered trademark) Ultra cAMP Kit (PerkinElmer, Inc.). That is, after dissolution in DMSO, the test compound (a final concentration of 1 pM to 30 μM) diluted with an assay buffer (Hank's balanced salt solution, 5 mM HEPES, 0.5 mM IBMX, 0.1% bovine serum albumin, pH 7.4), or α-MSH (Bachem Inc., a final concentration of 1 pM to 30 μM) was added to OptiPlate-384 (PerkinElmer, Inc.). Furthermore, the suspension of the cells transiently expressing the rat MC receptor that was prepared using the assay buffer was added thereto at 1,000 cells/well, and then left to stand at room temperature for about 1 hour. Thereafter, an Eu-cAMP tracer solution and an ULight™-anti-cAMP solution were added thereto, and the resulting solution was left to stand at room temperature for about 1 hour. The amount of cAMP was calculated using EnVision (registered trademark) (PerkinElmer Inc).
For the agonistic activity, an efficacy (EC50 (μM)) was calculated by a non-linear regression method with a Sigmoid-Emax model, by defining the maximum reaction using α-MSH as 100% and the reaction using a vehicle alone as 0%, respectively.

T1 sequence (P32245 whole entry): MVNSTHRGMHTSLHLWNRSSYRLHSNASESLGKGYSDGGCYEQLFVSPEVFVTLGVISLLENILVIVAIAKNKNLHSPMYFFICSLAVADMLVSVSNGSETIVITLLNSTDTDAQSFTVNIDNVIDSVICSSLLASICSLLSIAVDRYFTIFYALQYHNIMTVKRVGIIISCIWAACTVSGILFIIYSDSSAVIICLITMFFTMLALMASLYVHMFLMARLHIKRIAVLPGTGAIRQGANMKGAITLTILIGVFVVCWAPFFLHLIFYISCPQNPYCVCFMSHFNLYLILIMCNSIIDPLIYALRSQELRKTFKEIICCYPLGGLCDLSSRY
T3 sequence (P70596 whole entry): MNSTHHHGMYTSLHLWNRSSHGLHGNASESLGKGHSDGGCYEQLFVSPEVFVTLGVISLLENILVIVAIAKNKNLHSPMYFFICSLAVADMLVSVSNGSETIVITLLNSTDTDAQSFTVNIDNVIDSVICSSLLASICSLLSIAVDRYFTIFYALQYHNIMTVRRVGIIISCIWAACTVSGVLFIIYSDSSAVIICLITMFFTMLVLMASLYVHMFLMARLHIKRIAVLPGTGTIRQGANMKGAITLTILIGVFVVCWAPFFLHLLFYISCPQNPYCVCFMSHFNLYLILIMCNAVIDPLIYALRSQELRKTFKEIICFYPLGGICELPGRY

The EC50 is the midpoint of the concentration-response curve. `CC(=O)N[C@@H](CC(C)(C)C)C(=O)N1C[C@H](C)N(C(=O)[C@@H]2CN(C(C)(C)C)C[C@H]2c2ccc(F)cc2F)C[C@H]1C.Cl` [Example 4, N-{(2S)-1-[(2R,5S)-4-{[(3 S,4R)-1-tert-butyl-4-(2,4-difluorophenyl)pyrrolidin-3-yl]carbonyl}-2,5-dimethylpiperazin-1-yl]-4,4-dimethyl-1-oxopentan-2-yl}acetamide monohydrochloride]: the EC50 at human MC4 receptor was 6.8 nM; on human MC3 receptor, 270 nM; on rat MC4 receptor, 2 nM.
Turning to `CC(=O)N[C@@H](CC(C)C)C(=O)N1CCN(C(=O)[C@@H]2CN(C(C)(C)C)C[C@H]2c2ccc(Cl)cc2F)C[C@H]1C` [Example 5], the EC50 on human MC4 receptor stood at 6 nM; on human MC3 receptor, 550 nM; at rat MC4 receptor, 3.3 nM.
In the case of `CC(=O)N[C@H](C(=O)N1CCN(C(=O)[C@@H]2CN(C(C)(C)C)C[C@H]2c2ccc(F)cc2F)[C@@H](C)C1)C1CCCCC1.Cl` [Example 6, N-{(1S)-2-[(3S)-4-{[(3S,4R)-1-tert-butyl-4-(2,4-difluorophenyl)pyrrolidin-3-yl]carbonyl}-3-methylpiperazin-1-yl]-1-cyclohexyl-2-oxoethyl}acetamide monohydrochloride], the EC50 on human MC4 receptor stood at 19 nM; on human MC3 receptor, 1800 nM; at rat MC4 receptor, 16 nM.
On the same counts, the results for `CC(=O)N[C@@H](CC(C)(C)C)C(=O)N1CCN(C(=O)[C@@H]2CN(C(C)(C)C)C[C@H]2c2ccc(F)cc2F)[C@@H](C)C1.Cl` [Example 8] are 10 nM, 1000 nM and 4.7 nM.
On the same counts, the results for `CC(=O)N[C@@H](CC(C)(C)C)C(=O)N1C[C@H](C)N(C(=O)C2CN(C(C)(C)C)CC2c2ccc(F)cc2)C[C@H]1C.Cl` (stereo partly drawn) [Example 11] are 11 nM, 890 nM and 10 nM.
